{
  "source": "ChEMBL document CHEMBL5625206",
  "about": "“Design, synthesis, and evaluation of novel pleuromutilin aryl acrylate derivatives as promising broad-spectrum antibiotics especially for combatting multi-drug resistant gram-negative bacteria” (Eur J Med Chem, 2023)",
  "key": {"Staphylococcus aureus [1]": {"test_system": "Staphylococcus aureus", "assay": "Induction of cell damage in methicillin-resistant Staphylococcus aureus ATCC 33591 assessed as intracellular pH at MIC incubated for 30 mins by fluorescence based analysis (reference value: 6.34 +/- 0.10)", "format": "functional", "conditions": "0.5 h"}, "[2]": {"assay": "Toxicity in fasted male Sprague-Dawley rat assessed as relative testis weight ratio at 224 mg/kg, IG measured for 14 days (reference value: 0.993 +/- 0.052)", "format": "organism-based", "conditions": "in vivo, po, 336 h, time 14 day"}, "[3]": {"assay": "Toxicity in fasted female Sprague-Dawley rat assessed as relative ovary weight ratio at 148 mg/kg, IG measured for 14 days (reference value: 0.061 +/- 0.010)", "format": "organism-based", "conditions": "in vivo, po, 336 h, time 14 day"}, "[4]": {"assay": "Toxicity in fasted female Sprague-Dawley rat assessed as relative lung weight ratio at 500 mg/kg, IG measured for 14 days (reference value: 0.534 +/- 0025)", "format": "organism-based", "conditions": "in vivo, po, 336 h, time 14 day"}, "Escherichia coli [5]": {"test_system": "Escherichia coli", "assay": "Antibacterial activity against Escherichia coli ATCC 25922 assessed as bacterial growth inhibition incubated for 24 hrs by CLSI based broth microdilution method", "format": "functional"}, "[6]": {"assay": "Toxicity in fasted female Sprague-Dawley rat assessed as relative spleen weight ratio at 100 mg/kg, IG measured for 14 days (reference value: 0.223 +/- 0.019)", "format": "organism-based", "conditions": "in vivo, po, 336 h, time 14 day"}, "[7]": {"assay": "AUC (0 to t) in fasted Sprague-Dawley rat at 1 mg/kg, iv by LC-MS/MS analysis", "format": "ADME, organism-based", "conditions": "in vivo"}, "[8]": {"assay": "Toxicity in neutropenic Kunming mouse model infected with methicillin-resistant Staphylococcus aureus ATCC 33591 assessed as survival rate at 20 mg/kg, ip measured after 7 days relative to control", "format": "organism-based", "conditions": "in vivo, 168 h, time 7 day"}, "Staphylococcus aureus [9]": {"test_system": "Staphylococcus aureus", "assay": "Antibacterial activity against methicillin-resistant Staphylococcus aureus ATCC 33591 infected in neutropenic Kunming mouse model assessed as reduction in infection-induced lung damage at 20 mg/kg, ip measured after 7 days", "format": "functional, organism-based", "conditions": "time 7.0 day"}, "Staphylococcus aureus [10]": {"test_system": "Staphylococcus aureus", "assay": "Antibacterial activity against methicillin-resistant Staphylococcus aureus ATCC 33591 infected in neutropenic Kunming mouse model administered intraperitoneally measured after 7 days", "format": "functional", "conditions": "ATCC 33591, 168 h, route ip, time 7 day"}, "[11]": {"assay": "Toxicity in fasted male Sprague-Dawley rat assessed as relative spleen weight ratio at 331 mg/kg, IG measured for 14 days (reference value: 0.246 +/- 0.037)", "format": "organism-based", "conditions": "in vivo, po, 336 h, time 14 day"}, "Escherichia coli [12]": {"test_system": "Escherichia coli", "assay": "Induction of extracellular electrical conductivity in Escherichia coli ATCC 25922 at MIC incubated for 6 hrs", "format": "functional, organism-based"}, "[13]": {"assay": "Toxicity in fasted male Sprague-Dawley rat assessed as body weight at 500 mg/kg, IG measured after 14 days (reference value: 311.2 +/- 13.6 g)", "format": "organism-based", "conditions": "in vivo, po, 336 h, time 14 day"}, "[14]": {"assay": "Toxicity in fasted male Sprague-Dawley rat assessed as relative testis weight ratio at 148 mg/kg, IG measured for 14 days (reference value: 0.993 +/- 0.052)", "format": "organism-based", "conditions": "in vivo, po, 336 h, time 14 day"}, "[15]": {"assay": "Toxicity in fasted male Sprague-Dawley rat assessed as relative liver weight ratio at 224 mg/kg, IG measured for 14 days (reference value: 3.616 +/- 0.286)", "format": "organism-based", "conditions": "in vivo, po, 336 h, time 14 day"}, "[16]": {"assay": "Toxicity in fasted male Sprague-Dawley rat assessed as relative testis weight ratio at 331 mg/kg, IG measured for 14 days (reference value: 0.993 +/- 0.052)", "format": "organism-based", "conditions": "in vivo, po, 336 h, time 14 day"}, "[17]": {"assay": "Toxicity in fasted female Sprague-Dawley rat assessed as relative lung weight ratio at 148 mg/kg, IG measured for 14 days (reference value: 0.534 +/- 0025)", "format": "organism-based", "conditions": "in vivo, po, 336 h, time 14 day"}, "Staphylococcus aureus [18]": {"test_system": "Staphylococcus aureus", "assay": "Disruption of cell membrane integrity in methicillin-resistant Staphylococcus aureus ATCC 33591 at 4 times MIC incubated for 4 hrs by FESEM analysis", "format": "functional, organism-based"}, "[19]": {"assay": "Toxicity in fasted male Sprague-Dawley rat assessed as relative lung weight ratio at 331 mg/kg, IG measured for 14 days (reference value: 0.437 +/- 0.064)", "format": "organism-based", "conditions": "in vivo, po, 336 h, time 14 day"}, "[20]": {"assay": "Toxicity in fasted female Sprague-Dawley rat assessed as relative ovary weight ratio at 331 mg/kg, IG measured for 14 days (reference value: 0.061 +/- 0.010)", "format": "organism-based", "conditions": "in vivo, po, 336 h, time 14 day"}, "[21]": {"assay": "Cytotoxicity against human HepG2 cells incubated for 24 hrs by CCK8 assay", "format": "toxicity, cell-based"}, "Staphylococcus aureus [22]": {"test_system": "Staphylococcus aureus", "assay": "Induction of cell damage in methicillin-resistant Staphylococcus aureus ATCC 33591 assessed as decrease in intracellular ATP concentration at MIC incubated for 30 mins by fluorescence based analysis relative to control", "format": "functional", "design": "scale not given: the % may be the effect or the level left", "conditions": "0.5 h"}, "Staphylococcus aureus [23]": {"test_system": "Staphylococcus aureus", "assay": "Depolarization of cell membrane in methicillin-resistant Staphylococcus aureus ATCC 33591 by DiBAC4(3) probe based analysis", "format": "functional, organism-based"}, "Mesomycoplasma hyorhinis": {"test_system": "Mesomycoplasma hyorhinis", "assay": "Anti-mycoplasma activity against Mycoplasma hyorhinis BTS-7-NCTC10130 assessed as bacterial growth inhibition incubated for 7 days", "format": "functional", "conditions": "BTS-7-NCTC10130, 168 h, time 7 day"}, "[24]": {"test_system": "Mycoplasmoides gallisepticum", "assay": "Anti-mycoplasma activity against Mycoplasma gallisepticum MG-R-NCTC10115 assessed as bacterial growth inhibition incubated for 7 days", "format": "functional", "conditions": "MG-R-NCTC10115, 168 h, time 7 day"}, "Staphylococcus aureus [25]": {"test_system": "Staphylococcus aureus", "assay": "Antibacterial activity against Staphylococcus aureus ATCC 25923 assessed as bacterial growth inhibition incubated for 24 hrs by CLSI based broth microdilution method", "format": "functional"}, "[26]": {"assay": "Toxicity in fasted female Sprague-Dawley rat assessed as animal growth rate at 331 mg/kg, IG measured for 14 days (reference value: 29.85 +/- 4.97 g)", "format": "organism-based", "conditions": "in vivo, po, 336 h, time 14 day"}, "[27]": {"assay": "Toxicity in fasted Sprague-Dawley rat assessed as mortality rate at 331 mg/kg, IG measured for 14 days", "format": "organism-based", "conditions": "in vivo, po, time 14 day"}, "Escherichia coli [28]": {"test_system": "Escherichia coli", "assay": "Disruption of cell membrane integrity in Escherichia coli ATCC 25922 at 4 times MIC incubated for 4 hrs by FESEM analysis", "format": "functional, organism-based"}, "[29]": {"assay": "Toxicity in fasted female Sprague-Dawley rat assessed as body weight at 148 mg/kg, IG measured after 7 days (reference value: 188.2 +/- 9.2 g)", "format": "organism-based", "conditions": "in vivo, po, 168 h, time 7 day"}, "[30]": {"assay": "Toxicity in fasted female Sprague-Dawley rat assessed as body weight at 224 mg/kg, IG measured on same day (reference value: 165.2 +/- 8.1 g)", "format": "organism-based", "conditions": "in vivo, po"}, "[31]": {"assay": "Toxicity in fasted male Sprague-Dawley rat assessed as relative lung weight ratio at 224 mg/kg, IG measured for 14 days (reference value: 0.437 +/- 0.064)", "format": "organism-based", "conditions": "in vivo, po, 336 h, time 14 day"}, "Staphylococcus aureus [32]": {"test_system": "Staphylococcus aureus", "assay": "Induction of extracellular electrical conductivity in methicillin-resistant Staphylococcus aureus ATCC 33591 at 2 times MIC incubated for 8 hrs relative to control"}, "Staphylococcus aureus [33]": {"test_system": "Staphylococcus aureus", "assay": "Bactericidal activity against methicillin-resistant Staphylococcus aureus ATCC 33591 at 2 to 8 times MIC incubated for 8 to 24 hrs by time kill assay relative to control", "format": "functional", "conditions": "time 8-24 hrs"}, "[34]": {"assay": "Toxicity in fasted male Sprague-Dawley rat assessed as relative heart weight ratio at 500 mg/kg, IG measured for 14 days (reference value: 0.396 +/- 0.043)", "format": "organism-based", "conditions": "in vivo, po, 336 h, time 14 day"}, "Acinetobacter baumannii": {"test_system": "Acinetobacter baumannii", "assay": "Antibacterial activity against carbapenem-resistant Acinetobacter baumannii 882 clinical isolate assessed as bacterial growth inhibition incubated for 24 hrs by CLSI based broth microdilution method", "format": "functional"}},
  "note": "Activity calls are given as the source filed them. The calls are words filed in the database; no cut-off is given here.",
  "data": [
    {"smiles": "C=C[C@]1(C)C[C@@H](OC(=O)COC(=O)/C=C/c2ccc(N(C)C)cc2)[C@]2(C)[C@H](C)CC[C@]3(CCC(=O)[C@H]32)[C@@H](C)[C@@H]1O", "values": [
      {"measurement": "pH", "setting": "Staphylococcus aureus [1]", "result": 4.27},
      {"measurement": "Ratio", "setting": "[2]", "result": 0.981},
      {"measurement": "Ratio", "setting": "[3]", "result": 0.066},
      {"measurement": "Ratio", "setting": "[4]", "result": 0.503},
      {"measurement": "MIC", "setting": "Escherichia coli [5]", "result": 16, "unit": "µg/mL"},
      {"measurement": "Ratio", "setting": "[6]", "result": 0.226},
      {"measurement": "AUC(0-t)", "setting": "[7]", "result": 512, "unit": "ng·h/mL"},
      {"measurement": "Survival", "setting": "[8]", "result": 90, "unit": "%"},
      {"measurement": "Activity", "setting": "Staphylococcus aureus [9]", "result": "Active"},
      {"measurement": "ED50", "setting": "Staphylococcus aureus [10]", "result": 9.04, "unit": "mg/kg"},
      {"measurement": "Ratio", "setting": "[11]", "result": 0.235},
      {"measurement": "Activity", "setting": "Escherichia coli [12]", "result": "Active"},
      {"measurement": "Activity", "setting": "[13]", "result": 296.8, "unit": "g"},
      {"measurement": "Ratio", "setting": "[14]", "result": 0.99},
      {"measurement": "Ratio", "setting": "[15]", "result": 3.699},
      {"measurement": "Ratio", "setting": "[16]", "result": 1},
      {"measurement": "Ratio", "setting": "[17]", "result": 0.494},
      {"measurement": "Activity", "setting": "Staphylococcus aureus [18]", "result": "Active"},
      {"measurement": "Ratio", "setting": "[19]", "result": 0.397},
      {"measurement": "Ratio", "setting": "[20]", "result": 0.067},
      {"measurement": "CC50 at 24 h", "setting": "[21]", "result": "> 200", "unit": "µM"},
      {"measurement": "Activity", "setting": "Staphylococcus aureus [22]", "result": 57.98, "unit": "%"},
      {"measurement": "Activity", "setting": "Staphylococcus aureus [23]", "result": "Dose-Dependent Effect"},
      {"measurement": "MIC", "setting": "Mesomycoplasma hyorhinis", "result": 0.004, "unit": "µg/mL"},
      {"measurement": "MIC", "setting": "[24]", "result": 0.004, "unit": "µg/mL"},
      {"measurement": "MIC", "setting": "Staphylococcus aureus [25]", "result": 1, "unit": "µg/mL"},
      {"measurement": "Activity", "setting": "[26]", "result": 27.6, "unit": "%"},
      {"measurement": "mortality at 336 h", "setting": "[27]", "result": 0, "unit": "%"},
      {"measurement": "Activity", "setting": "Escherichia coli [28]", "result": "Active"},
      {"measurement": "Activity", "setting": "[29]", "result": 181.4, "unit": "g"},
      {"measurement": "Activity", "setting": "[30]", "result": 168.5, "unit": "g"},
      {"measurement": "Ratio", "setting": "[31]", "result": 0.411},
      {"measurement": "Activity", "setting": "Staphylococcus aureus [32]", "result": 25.63, "unit": "%"},
      {"measurement": "Activity", "setting": "Staphylococcus aureus [33]", "result": 100, "unit": "%"},
      {"measurement": "Ratio", "setting": "[34]", "result": 0.376},
      {"measurement": "MIC", "setting": "Acinetobacter baumannii", "result": 64, "unit": "µg/mL"}
    ]}
  ]
}
